{"source": "paper PMC9569529", "about": "“Safe and Efficient Sigma1 Ligand: A Potential Drug Candidate for Multiple Sclerosis” (International Journal of Molecular Sciences, 2022)", "key": {"[1]": {"tested_on": "dizocilpine-induced learning deficits", "assay": "Dizocilpine-induced learning deficits, step-through passive avoidance", "format": "in vivo, male Swiss mice", "procedure": "The activity of compound 7i was evaluated in regard to its ability to reverse dizocilpine-induced learning deficits. Two behavioral tests were performed by Amylgen (Montferrier-sur-Lez, France) on male Swiss mice (aged 6–9 weeks). All compounds (7i and controls) were intraperitoneally injected.\nAnimals were tested for spontaneous alternation performance in the Y-maze, an index of spatial working memory. Made of grey polyvinylchloride, the Y-maze has an arm which is 40 cm long, 13 cm high and 3 cm wide at the bottom and 10 cm wide at the top, converging at an equal angle. Each mouse was placed at the end of one arm and allowed to move freely through the maze during an 8-min session. The series of arm entries, including possible returns into the same arm, were checked visually. An alternation was defined as entries into all three arms on consecutive occasions. The number of maximum alternations was therefore the total number of arm entries minus two, and the percentage of alternation was calculated as: (actual alternations/maximum alternations) × 100. Parameters included the percentage of alternation (memory index) and the total number of arm entries (exploration index). Animals showing extreme behavior (alternation < 20% or >90% or number of arm entries < 10) are usually discarded from the calculations. […] Step-through latency (the latency in time spent to enter the dark compartment) and the number of vocalizations were recorded. […] Step-through latency was recorded up to 300 s. When either the mouse entered the dark compartment or 300 s had elapsed (they were therefore manually placed in it), escape latency (latency to exit from the dark compartment) was recorded with a value of up to 300 s. […]"}, "S. typhimurium TA1537": {"tested_on": "S. typhimurium TA1537", "assay": "Ames test", "settings": "7i 40 µg/plate"}, "[2]": {"tested_on": "40 different receptors relevant to CNS disease", "parameters": "method as in PMID 28756263", "settings": "40 receptors relevant to CNS disease; cited from earlier work"}, "CYP3A4": {"tested_on": "CYP3A4", "assay": "CYP induction in human hepatocytes (mRNA, qPCR)", "format": "in vitro ADME", "settings": "10 µM", "procedure": "(§1) The compound was classically evaluated at 10 µM for all the ADME analyses. Bidirectional permeability (apical A to basolateral B pH 6.5/7.4 and basolateral B to apical A pH 7.4/6.5) was assessed in the epithelial colorectal adenocarcinoma cell line (Caco-2 cell line). Results were expressed as × 10^−6cm/s (Papp) and as % recovery. Efflux ratio, i.e., Papp(B-A)/Papp(A-B), was calculated. Plasma protein binding was analyzed by HPLC-MS/MS after 4-h incubation at 37 °C, as described by Banker et al.. Concentration was evaluated by LC/MS-MS. CYP inhibition was performed in human liver microsomes as described in [61]. Analysis of the respective metabolites. was performed by HPLC-MS/MS. Transporter inhibition analysis was also performed in overexpressing cell lines. Respective metabolites for each specific transporter substrate were analyzed by fluorometry or scintillation counting and % inhibition of control values were calculated. P-glycoprotein transporter substrate assessment was performed by bidirectional permeability analysis (apical A to basolateral B pH 7.4/7.4 and basolateral B to apical A pH 7.4/7.4) in the Caco-2 cell line with and without verapamil, as described in [59]. Results were expressed as ×10^−6 cm/s (Papp) and as % recovery. The efflux ratio, i.e., Papp(B-A)/Papp(A-B), was calculated. CYP450 induction characterization was performed on human hepatocytes. The mRNA levels of 7 different CYPs were analyzed by qPCR, as described in [72]. The compound was evaluated at 1, 10 and 100 µM. Fold-induction values were determined and compared to cut-off values, as defined for each CYP isozyme in each hepatocyte lot."}, "CYP2B6": {"tested_on": "CYP2B6", "assay": "CYP induction in human hepatocytes (mRNA, qPCR)", "format": "in vitro ADME", "settings": "10 µM", "procedure": "as §1"}, "CYP1A2": {"tested_on": "CYP1A2", "assay": "CYP induction in human hepatocytes (mRNA, qPCR)", "format": "in vitro ADME", "settings": "10 µM", "procedure": "as §1"}, "Caco-2 cell line": {"tested_on": "Caco-2 cell line", "assay": "Bidirectional permeability in Caco-2 (pH 6.5/7.4)", "format": "in vitro ADME, human", "settings": "Papp(B-A)/Papp(A-B), pH 6.5/7.4", "procedure": "as §1"}}}
{"smiles": "CN(CCCNC(=O)c1ccc(Cl)cc1)Cc1ccccc1", "note": "[compound 7i]", "values": [{"measurement": "dizocilpine-induced learning deficits, passive avoidance", "setting": "[1]; 0.1 and 0.5 mg/kg i.p., dizocilpine 0.15 mg/kg", "result": "significantly attenuated"}, {"measurement": "beneficial effect in passive avoidance with NE-100 treatment", "setting": "[1]; plus NE-100 at 3 mg/kg i.p.", "result": "prevented"}, {"measurement": "Ames TA1537 +S9 (Mean revertants/well per title)", "setting": "S. typhimurium TA1537; +S9, positive control 2-anthramine 0.5", "result": 1.1}, {"measurement": "Ames TA1537 −S9 (Mean revertants/well per title)", "setting": "S. typhimurium TA1537; −S9, positive control 9-amino-acridine 1.56", "result": 0.9}, {"measurement": "off-target selectivity profile", "setting": "[2]", "result": "excellent highly selective profile"}, {"measurement": "modulation of CYP3A4 (induction, conclusion)", "setting": "CYP3A4; three donors", "result": "No modulation"}, {"measurement": "CYPs induction CYP3A4, donor #1", "setting": "CYP3A4; donor #1, cut-off (4)", "result": 4.2, "unit": "%"}, {"measurement": "CYPs induction CYP3A4, donor #2", "setting": "CYP3A4; donor #2, cut-off (6)", "result": 1.6, "unit": "%"}, {"measurement": "CYPs induction CYP3A4, donor #3", "setting": "CYP3A4; donor #3, cut-off (3)", "result": 0.8, "unit": "%"}, {"measurement": "modulation of CYP2B6 (induction, conclusion)", "setting": "CYP2B6; three donors", "result": "No modulation"}, {"measurement": "CYPs induction CYP2B6, donor #1", "setting": "CYP2B6; donor #1, cut-off (3)", "result": 4.1, "unit": "%"}, {"measurement": "CYPs induction CYP2B6, donor #2", "setting": "CYP2B6; donor #2, cut-off (4)", "result": 4.1, "unit": "%"}, {"measurement": "CYPs induction CYP2B6, donor #3", "setting": "CYP2B6; donor #3, cut-off (2)", "result": 4.2, "unit": "%"}, {"measurement": "modulation of CYP1A2 (induction, conclusion)", "setting": "CYP1A2; three donors", "result": "No modulation"}, {"measurement": "CYPs induction CYP1A2, donor #1", "setting": "CYP1A2; donor #1, cut-off (2)", "result": 2.7, "unit": "%"}, {"measurement": "CYPs induction CYP1A2, donor #2", "setting": "CYP1A2; donor #2, cut-off (5)", "result": 1.5, "unit": "%"}, {"measurement": "CYPs induction CYP1A2, donor #3", "setting": "CYP1A2; donor #3, cut-off (2)", "result": 1.9, "unit": "%"}, {"measurement": "e-ratio (efflux ratio)", "setting": "Caco-2 cell line", "result": 2.3}]}
